How the values were obtained:
human CRF receptor = target: T1, human CRF receptor (Homo sapiens, UniProt P34998); test: Measurement of CRF Binding Inhibitory Rate (receptor binding experiment with 125I-CRF); conditions: human CRF receptor expressing CHO cellular membrane fraction; 50 pM ovine 125I-CRF; 0.05 nM to 10 μM of compound; room temperature 1.5 hr; read-out: IC50 values (CRF binding inhibition)
T1 construct: expressed in transfected cells; host or cells: CHO cells (membrane fraction)
T1 sequence (P34998 24-415): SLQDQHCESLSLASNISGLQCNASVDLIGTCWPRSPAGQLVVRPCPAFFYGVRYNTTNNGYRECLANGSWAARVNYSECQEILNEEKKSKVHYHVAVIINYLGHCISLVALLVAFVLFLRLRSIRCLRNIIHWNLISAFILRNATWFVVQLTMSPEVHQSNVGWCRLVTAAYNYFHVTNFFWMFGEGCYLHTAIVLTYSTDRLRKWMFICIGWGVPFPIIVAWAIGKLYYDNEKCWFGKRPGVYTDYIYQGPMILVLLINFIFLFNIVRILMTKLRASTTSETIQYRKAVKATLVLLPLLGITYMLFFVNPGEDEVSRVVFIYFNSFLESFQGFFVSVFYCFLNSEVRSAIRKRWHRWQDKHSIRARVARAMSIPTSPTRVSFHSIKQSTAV
Method: Measurement of CRF Binding Inhibitory Rate
A receptor binding experiment was carried out using a human CRF receptor expressing CHO cellular membrane fraction and ovine CRF, [^125I]-tyr^0(^125I-CRF). 1000 nM of a test compound was incubated with 1 μg of human CRF receptor expressing CHO cellular membrane fraction and 50 pM of ^125I-CRF in a binding assay buffer (50 mM Tris-HCl, 5 mM EDTA, 10 mM MgCl2, 0.05% CHAPS, 0.1% BSA, 0.5 mM PMSF, 0.1 μg/mL pepstatin, 20 μg/mL leupeptin, pH 7.5). In addition, for measuring nonspecific binding (NSB), 0.1 μM unlabelled human Urocortin was incubated with 5 μg of human CRF receptor expressing CHO cellular membrane fraction and 50 pM of ^125I-CRF in a binding assay buffer. After a binding reaction was carried out at room temperature for 1.5 hr, the membrane was entrapped on a glass filter (UniFilter plate GF-C/Perkin Elmer) by suction filtration using a cell harvester (Perkin Elmer), and washed with ice-cooled 50 mM Tris-HCl (pH 7.5). After drying the glass filter, a liquid scintillation cocktail (Microscinti 0, Perkin Elmer) was added, and the radioactivity of ^125I-CRF remaining on a glass filter was measured using Topcount (Perkin Elmer).
(TB-SB)/(TB-NSB)×100 (SB: radioactivity when a compound is added, TB: maximum binding radioactivity, NSB: nonspecific binding radioactivity) were calculated to obtain binding inhibitory rates under the range of the presence from 0.05 nM to 10 μM of each compounds. The IC50 values were calculated by using GraphPad Prism software.

SMILES	melting point [°C]	IC50 (human CRF receptor) [nM]
CCC(CC)c1ccc(OC)c2nc(Oc3c(Cl)cc(Cl)cc3CN3CCCC3)n(C)c12.Cl [Example 79, 2-[2,4-Dichloro-6-(pyrrolidin-1-ylmethyl)phenoxy]-7-(1-ethylpropyl)-4-methoxy-1-methyl-1H-benzimidazole]	183 to 185	< 1000
CCC(CC)c1ccc(Cl)c2nc(Oc3c(Cl)cc(Cl)cc3N3CCN(C)CC3)n(C)c12 [Example 26, 4-Chloro-2-[2,4-dichloro-6-(4-methylpiperazin-1-yl)phenoxy]-7-(1-ethylpropyl)-1-methyl-1H-benzimidazole]	162 to 164	< 1000
CCC(CC)c1ccc(Cl)c2nc(Oc3c(Cl)cc(OC(F)(F)F)cc3S(C)(=O)=O)n(C)c12 [Example 44, 4-Chloro-2-[2-chloro-6-(methylsulfonyl)-4-(trifluoromethoxy)phenoxy]-7-(1-ethylpropyl)-1-methyl-1H-benzimidazole]	164 to 165	< 1000
CCC(CC)c1ccc(Cl)c2nc(Nc3c(C)cc(Cl)cc3SC)n(C)c12 [Example 50, 4-Chloro-N-[4-chloro-2-methyl-6-(methylthio)phenyl]-7-(1-ethylpropyl)-1-methyl-1H-benzimidazol-2-amine]	167 to 169	< 1000
CCC(CC)c1ccc(Cl)c2nc(Oc3c(C)cc(SC)cc3Cl)n(C)c12 [Example 36, 4-Chloro-2-[2-chloro-6-methyl-4-(methylthio)phenoxy]-7-(1-ethylpropyl)-1-methyl-1H-benzimidazole]	141 to 143	< 1000
CCC(CC)c1ccc(OC)c2nc(Nc3ccc(Cl)cc3Cl)n(C)c12 [Example 20, N-(2,4-Dichlorophenyl)-7-(1-ethylpropyl)-4-methoxy-1-methyl-1H-benzimidazol-2-amine]	198 to 200	< 1000
CCC(CC=O)c1ccc(Cl)c2nc(Oc3c(C)cc(Cl)cc3Cl)n(C)c12 (stereo not shown) [Example 98, 3-[4-Chloro-2-(2,4-dichloro-6-methylphenoxy)-1-methyl-1H-benzimidazol-7-yl]pentanal]	157 to 158	< 1000
CCC(CC)c1ccc(OC)c2nc(Oc3c(F)cc(Br)cc3Cl)n(C)c12 [Example 81, 2-(4-Bromo-2-chloro-6-fluorophenoxy)-7-(1-ethylpropyl)-4-methoxy-1-methyl-1H-benzimidazole]	129 to 131	< 1000
CCC(CC)c1ccc(OC)c2nc(Oc3c(Cl)cc(N(C)C)cc3Cl)n(C)c12 [Example 2, 3,5-Dichloro-4-{[7-(1-ethylpropyl)-4-methoxy-1-methyl-1H-benzimidazol-2-yl]oxy}-N,N-dimethylaniline]	176 to 177	< 1000
CCC(CC)c1ccc(Cl)c2nc(Oc3c(C)cc([S+](C)[O-])cc3Cl)n(C)c12 (stereo not shown) [Example 37, 4-Chloro-2-[2-chloro-6-methyl-4-(methylsulfinyl)phenoxy]-7-(1-ethylpropyl)-1-methyl-1H-benzimidazole]	182 to 184	< 1000
CCC(CC)c1ccc(OC)c2nc(Nc3c(C)cc(Cl)cc3Cl)n(C)c12 [Example 88, N-(2,4-Dichloro-6-methylphenyl)-7-(1-ethylpropyl)-4-methoxy-1-methyl-1H-benzimidazol-2-amine]	201 to 203	< 1000
CCC(CC)c1ccc(Cl)c2nc(Oc3c(Cl)cc(Cl)cc3S(N)(=O)=O)n(C)c12 [Example 32, 3,5-Dichloro-2-{[4-chloro-7-(1-ethylpropyl)-1-methyl-1H-5 benzimidazol-2-yl]oxy}benzenesulfonamide]	133 to 134	< 1000
CCC(CC)c1ccc(OC)c2nc(Oc3ccc(C(F)(F)F)cc3N(C)C)n(C)c12 [Example 12, 2-{[7-(1-Ethylpropyl)-4-methoxy-1-methyl-1H-benzimidazol-2-yl]oxy}-N,N-dimethyl-5-(trifluoromethyl)aniline]	131 to 133	< 1000
CCC(CC)c1ccc(Cl)c2nc(Oc3c(Cl)cc(Cl)cc3N3CCCC3)n(C)c12 [Example 29, 4-Chloro-2-(2,4-dichloro-6-pyrrolidin-1-ylphenoxy)-7-(1-ethylpropyl)-1-methyl-1H-benzimidazole]	209 to 210	< 1000
CCC(CC)c1ccc(OC)c2nc(Oc3ccc(N(C)C)cc3Cl)n(C)c12 [Example 3, 3-Chloro-4-{[7-(1-ethylpropyl)-4-methoxy-1-methyl-1H-benzimidazol-2-yl]oxy}-N,N-dimethylaniline]	122 to 123	< 1000
CCC(CC)c1ccc(Cl)c2nc(Oc3ccc(N(C)C)cc3Cl)n(C)c12 [Example 83, 3-Chloro-4-{[4-chloro-7-(1-ethylpropyl)-1-methyl-1H-benzimidazol-2-yl]oxy}-N,N-dimethylaniline]	148 to 149	< 1000
CCC(CC)c1ccc(Cl)c2nc(Oc3c(Cl)cc(OC(F)(F)F)cc3SC)n(C)c12 [Example 42, 4-Chloro-2-[2-chloro-6-(methylthio)-4-(trifluoromethoxy)phenoxy]-7-(1-ethylpropyl)-1-methyl-1H-benzimidazole]	138 to 139	< 1000
CCC(CC)c1ccc(Cl)c2nc(Nc3c(C)cc(Cl)cc3[S+](C)[O-])n(C)c12 (stereo not shown) [Example 51, 4-Chloro-N-[4-chloro-2-methyl-6-(methylsulfinyl)phenyl]-7-(1-ethylpropyl)-1-methyl-1H-benzimidazol-2-amine]	212 to 213	< 1000
CCC(CC)c1ccc(Cl)c2nc(Oc3c(Cl)cc(Cl)cc3CN(C)C)n(C)c12 [Example 86, 1-(3,5-Dichloro-2-{[4-chloro-7-(1-ethylpropyl)-1-methyl-1H-1-benzimidazol-2-yl]oxy}phenyl)-N,N-dimethylmethanamine]	149 to 151	< 1000
CCC(CC)c1ccc(Cl)c2nc(Oc3c(OC)cc(C)nc3N(C)C)n(C)c12 [Example 52, 3-{[4-Chloro-7-(1-ethylpropyl)-1-methyl-1H-benzimidazol-2-yl]oxy}-4-methoxy-N,N,6-trimethylpyridin-2-amine]	202 to 203	< 1000
CCC(CC)c1ccc(Cl)c2nc(Oc3c(Cl)cc(OC(F)(F)F)cc3[S+](C)[O-])n(C)c12 (stereo not shown) [Example 43, 4-Chloro-2-[2-chloro-6-(methylsulfinyl)-4-(trifluoromethoxy)phenoxy]-7-(1-ethylpropyl)-1-methyl-1H-benzimidazole]	150 to 151	< 1000
CCC(CC)c1ccc(Cl)c2nc(Oc3c(Cl)cc(Cl)c4c3CN(C)C4)n(C)c12 [Example 55, 4-Chloro-2-[(5,7-dichloro-2-methyl-2,3-dihydro-1H-isoindol-4-yl)oxy]-7-(1-ethylpropyl)-1-methyl-1H-benzimidazole]	148 to 149	< 1000
CCC(CC)c1ccc(OC)c2nc(Oc3ccc(OC(F)(F)F)cc3Br)n(C)c12 [Example 10, 2-[2-Bromo-4-(trifluoromethoxy)phenoxy]-7-(1-ethylpropyl)-4-methoxy-1-methyl-1H-benzimidazole]	117 to 118	< 1000
CCC(CC)c1ccc(Cl)c2nc(Oc3c(OC)cc(C(F)(F)F)nc3C)n(C)c12 [Example 56, 4-Chloro-7-(1-ethylpropyl)-2-{[4-methoxy-2-methyl-6-(trifluoromethyl)pyridin-3-yl]oxy}-1-methyl-1H-benzimidazole]	178 to 179	< 1000
CCC(CC)c1ccc(Cl)c2nc(Oc3c(Cl)cc(Cl)cc3N(C)C)n(C)c12 [Example 24, 3,5-Dichloro-2-{[4-chloro-7-(1-ethylpropyl)-1-methyl-1H-benzimidazol-2-yl]oxy}-N,N-dimethylaniline]	172 to 173	< 1000
CCC(CC)c1ccc(Cl)c2nc(Oc3c(Cl)cc(Cl)cc3-n3ccnc3)n(C)c12 [Example 27, 4-Chloro-2-[2,4-dichloro-6-(1H-imidazol-1-yl)phenoxy]-7-(1-ethylpropyl)-1-methyl-1H-benzimidazole]	134 to 135	< 1000

Reference: patent US20100056515A1, “BENZIMIDAZOLE COMPOUNDS” (priority 2006, published 2010)
